Patent publication US10766869B2, “Triazoles for the treatment of demyelinating dieases” (Vertex Pharmaceuticals Incorporated, priority 2015, dated 2020)
Where two headings read alike, the source gives them in different places.

Tested on: primary rat mixed cortical cells
Assay: In vitro myelination assay (MBP positive myelin strands, fold myelin pixels above background)
Type: cell-based
Conditions: Rattus norvegicus, relative to baseline of no added compound; for fold induction at 1 µM: 1.0 μM compound; for fold induction at 10 µM: 10.0 μM compound
Text: In Vitro Myelination Assay
Compounds were screened for their ability to induce myelination using a primary rat mixed cortical cell culture assay, which contains neurons, oligodendrocyte precursor cells, oligodendrocytes, astrocytes and microglia. The assay quantifies myelination by measuring myelin basic protein (MBP) immunofluorescent positive myelin strands from images taken using a Cellomics Array Scan (model Arrayscan VTI HCS Reader) or a Molecular Devices Image Xpress (model IXM XL) high content imager. The myelin strands were quantitated using a custom created myelin detection software program. Test compounds were dissolved in DMSO to make a 10 mM initial stock solution. Dilutions were made in myelination medium to obtain the final solutions for the assay and were tested in primary rat mixed cortical cells at selected doses.
Primary rat mixed cortical cells were prepared from harvested cerebral cortices from postnatal day 1 (P1) rats (P1 Rat CD® IGS pups) were purchased from Charles River) in Complete Dissociation Medium, wherein the meninges were removed and the cortical tissue chopped with a razor blade into ˜1 mm^3 pieces. Tissue from 1-3 pups was collected and placed into 15 ml conical tubes in a total volume of 5 ml of Complete Dissociation Medium. Activated papain (3 ml) was added to each 15 ml conical tube and tissue was incubated at 37° C. for 30 minutes. After the 30 minute incubation, DNase (Sigma D4527; 75 μl of a 1 mg/ml stock) was added to each tube, followed by mechanical trituration using a 2 ml serological pipette and autopipettor to gently dissociate the tissue. Following trituration, larger tissue pieces were allowed to settle by gravity, and the supernatant containing dissociated cells was transferred to a 50 ml conical tube with 4 ml of trypsin inhibitor. Cells were pelleted by centrifugation, resuspended in myelination medium and filtered through a 40 μm filter. Cells were then seeded in 96-well plates (BD Biosciences, Black, PDL-coated, Cat. No. 356640) at 87,500-95,000 cells/well in a final volume of 200 μl of Myelination Medium in the presence or absence of compound and cultured for 14 days in a humidified 37° C. incubator with 5% CO2. Half the medium was removed and replaced with fresh medium containing 1× compound on days 6 and 10. Using a Biotek automatic plate washer (model Biomek® FXP Laboratory Automation Workstation), cells were fixed with 4% paraformaldehyde on day 14, washed with PBS and blocked in 5% normal goat serum (Vector Laboratories, S-1000) in 0.1% PBS-TritonX-100 (PBST) for 1 hour. Cells were stained with 1:500 anti-MBP (Covance, cat # SMI99) primary antibody in 1% normal goat serum in 0.1% PBST for 2 hours at room temperature followed by 2 washes with PBST. A final incubation in secondary antibody (1:1000, Invitrogen, Alexa-488 anti-mouse IgG2b) and 1:10,000 Hoechst dye in 1% normal goat serum in 0.1% PBST was performed for 2 hours at room temperature. Plates were washed with PBS and then scanned on a Cellomics Array Scan using a 10× objective (25 images per well) or the Image Xpress using a 10× objective (9 image per well). Images were analyzed using Vertex myelin detection software (described below) to quantify total MBP myelin pixels per well. Fold myelin pixels above background at two concentrations (1.0 μM and 10.0 μM) relative to baseline of no added compound are reported below in Table 4. Standard deviation for each compound concentration was calculated using all replicates and using a standard deviation formula commonly used in the art.
One of skill in the art would recognize that for this type of primary neuronal mixed cell assay variability between different assay runs is to be expected even though the protocol is the same for each assay run. For instance, variability may be due to small differences in cell viability, cell density, age of the animals, etc.
Vertex Myelin Detection Software: […]

[1] = read-out: Fold myelin pixels above background, 1.0 μM
[2] = read-out: Fold myelin pixels above background, 10.0 μM
[3] = read-out: Fold myelin pixels above background

Cc1cc(-n2cnc(Nc3cc(C4CC4)cc(N4CCN(C5COC5)CC4)c3)n2)nc(C)n1 [Compound 129, N-[3-cyclopropyl-5-[4-(oxetan-3-yl)piperazin-1-yl]phenyl]-1-(2,6-dimethylpyrimidin-4-yl)-1,2,4-triazol-3-amine]
fold induction at 1 µM [1]: ≤ 1 | fold induction at 10 µM [2]: ≤ 1

Cc1cc(Nc2ncn(-c3ccc(F)c(F)c3)n2)cc(OC2CCN(C3COC3)CC2)c1 [Compound 384, 1-(3,4-difluorophenyl)-N-[3-methyl-5-[[1-(oxetan-3-yl)-4-piperidyl]oxy]phenyl]-1,2,4-triazol-3-amine]
fold induction at 1 µM [1]: 100 to 1000 | fold induction at 10 µM [2]: 100 to 1000

Fc1ccc(-n2cnc(Nc3cc(C4CC4)nc(N4CC[C@H](F)C4)c3)n2)cc1F [Compound 492, 2-cyclopropyl-N-[1-(3,4-difluorophenyl)-1,2,4-triazol-3-yl]-6-[(3S)-3-fluoropyrrolidin-1-yl]pyridin-4-amine]
fold induction at 1 µM [3]: 1000 to 10000 | fold induction at 10 µM [3]: 1000 to 10000

Cc1cc(Nc2ncn(-c3cccc(F)c3)n2)cc(N2CCOCC2)c1 [Compound 27, 1-(3-fluorophenyl)-N-(3-methyl-5-morpholino-phenyl)-1,2,4-triazol-3-amine]
fold induction at 1 µM [1]: 1000 to 10000 | fold induction at 10 µM [2]: 100 to 1000

Cc1cc(Nc2ncn(-c3ccccc3)n2)cc(N2CCC(C#N)CC2)c1 [Compound 142, 1-[3-methyl-5-[(1-phenyl-1,2,4-triazol-3-yl)amino]phenyl]piperidine-4-carbonitrile]
fold induction at 1 µM [1]: 1000 to 10000 | fold induction at 10 µM [2]: 100 to 1000

c1ccc(-n2cnc(Nc3cc(C4CC4)cc(N4CCN(C5COC5)CC4)c3)n2)cc1 [Compound 47, N-[3-cyclopropyl-5-[4-(oxetan-3-yl)piperazin-1-yl]phenyl]-1-phenyl-1,2,4-triazol-3-amine]
fold induction at 1 µM [1]: 100 to 1000 | fold induction at 10 µM [2]: ≤ 1

Cc1cc(Nc2ncn(-c3cc(F)cc(F)c3)n2)cc(N2CCN(C(CO)CO)CC2)c1 [Compound 79, 2-[4-[3-[[1-(3,5-difluorophenyl)-1,2,4-triazol-3-yl]amino]-5-methyl-phenyl]piperazin-1-yl]propane-1,3-diol]
fold induction at 1 µM [1]: 10 to 100 | fold induction at 10 µM [2]: ≤ 1

FC(F)(F)c1cc(Nc2ncn(-c3cnccn3)n2)cc(N2CCC(C3COC3)CC2)c1 [Compound 507, N-[3-[4-(oxetan-3-yl)-1-piperidyl]-5-(trifluoromethyl)phenyl]-1-pyrazin-2-yl-1,2,4-triazol-3-amine]
fold induction at 1 µM [3]: 10 to 100 | fold induction at 10 µM [3]: 100 to 1000

COC[C@H]1CCCN1c1cc(F)cc(-n2cnc(Nc3cc(C)cc(N4CCN(C5COC5)CC4)c3)n2)c1 [Compound 491, 1-[3-fluoro-5-[(2R)-2-(methoxymethyl)pyrrolidin-1-yl]phenyl]-N-[3-methyl-5-[4-(oxetan-3-yl)piperazin-1-yl]phenyl]-1,2,4-triazol-3-amine]
fold induction at 1 µM [3]: 100 to 1000 | fold induction at 10 µM [3]: ≤ 1

Cc1cc(Nc2ncn(-c3ccncc3)n2)cc(N2CCN(C3COC3)CC2)c1 [Compound 224, N-[3-methyl-5-[4-(oxetan-3-yl)piperazin-1-yl]phenyl]-1-(4-pyridyl)-1,2,4-triazol-3-amine]
fold induction at 1 µM [1]: 100 to 1000 | fold induction at 10 µM [2]: 10 to 100

Brc1cc(Nc2ncn(-c3ccccc3)n2)cc(N2CCOCC2)c1 [Compound 168, N-(3-bromo-5-morpholino-phenyl)-1-phenyl-1,2,4-triazol-3-amine]
fold induction at 1 µM [1]: 1000 to 10000 | fold induction at 10 µM [2]: 1000 to 10000

Cc1cc(Nc2ncn(-c3ccc(F)c(F)c3)n2)cc(OCc2ccn(C)n2)c1 [Compound 714, 1-(3,4-difluorophenyl)-N-[3-methyl-5-[(1-methylpyrazol-3-yl)methoxy]phenyl]-1,2,4-triazol-3-amine]
fold induction at 1 µM [3]: 10 to 100 | fold induction at 10 µM [3]: 10 to 100

Cc1cc(Nc2ncn(-c3cc(F)cc(F)c3)n2)cc(N2CC(O)C2)c1 [Compound 355, 1-[3-[[1-(3,5-difluorophenyl)-1,2,4-triazol-3-yl]amino]-5-methyl-phenyl]azetidin-3-ol]
fold induction at 1 µM [1]: 10 to 100 | fold induction at 10 µM [2]: 100 to 1000

COc1cc(Nc2ncn(-c3ccc(F)cc3)n2)cc(N2CCN(C3COC3)CC2)c1 [Compound 102, 1-(4-fluorophenyl)-N-[3-methoxy-5-[4-(oxetan-3-yl)piperazin-1-yl]phenyl]-1,2,4-triazol-3-amine]
fold induction at 1 µM [1]: 100 to 1000 | fold induction at 10 µM [2]: 1 to 10

Cc1cc(Nc2ncn(-c3cc(F)cc(F)c3)n2)cc(C2CCN(C3COC3)CC2(F)F)c1 (stereo not drawn) [Compound 235, N-[3-[3,3-difluoro-1-(oxetan-3-yl)-4-piperidyl]-5-methyl-phenyl]-1-(3,5-difluorophenyl)-1,2,4-triazol-3-amine]
fold induction at 1 µM [1]: 10 to 100 | fold induction at 10 µM [2]: 10 to 100

Cc1cc(Nc2ncn(-c3ccc(F)c(F)c3)n2)cc(N2CCN(CC(F)(F)F)CC2)c1 [Compound 231, 1-(3,4-difluorophenyl)-N-[3-methyl-5-[4-(2,2,2-trifluoroethyl)piperazin-1-yl]phenyl]-1,2,4-triazol-3-amine]
fold induction at 1 µM [1]: 100 to 1000 | fold induction at 10 µM [2]: 100 to 1000

Cc1cc(Nc2ncn(-c3cc(F)cc(F)c3)n2)c(F)c(NC2CCOC2)c1 (stereo not drawn) [Compound 765, N3-[1-(3,5-difluorophenyl)-1,2,4-triazol-3-yl]-2-fluoro-5-methyl-N1-tetrahydrofuran-3-yl-benzene-1,3-diamine]
fold induction at 1 µM [3]: 10 to 100 | fold induction at 10 µM [3]: 1 to 10

Cc1cc(Nc2ncn(-c3cc(F)cc(F)c3)n2)cc([C@]2(C)CN(C3COC3)CCO2)c1 (single isomer, unassigned) [Compound 750]
fold induction at 1 µM [3]: 1 to 10 | fold induction at 10 µM [3]: 10 to 100

Fc1cc(F)cc(-n2cnc(Nc3cc(C4=CCOC4)cc(N4CCOCC4)c3)n2)c1 [Compound 298, 1-(3,5-difluorophenyl)-N-[3-(2,5-dihydrofuran-3-yl)-5-morpholino-phenyl]-1,2,4-triazol-3-amine]
fold induction at 1 µM [1]: 1000 to 10000 | fold induction at 10 µM [2]: 100 to 1000

c1ccc(-n2cnc(Nc3cc(C4CC4)cc(N4CCOCC4)c3)n2)cc1 [Compound 305, N-(3-cyclopropyl-5-morpholino-phenyl)-1-phenyl-1,2,4-triazol-3-amine]
fold induction at 1 µM [1]: 100 to 1000 | fold induction at 10 µM [2]: ≤ 1

Cc1cc(Nc2ncn(-c3ccc(OC(F)(F)F)cc3)n2)cc(N2CCN(C3COC3)CC2)c1 [Compound 478, N-[3-methyl-5-[4-(oxetan-3-yl)piperazin-1-yl]phenyl]-1-[4-(trifluoromethoxy)phenyl]-1,2,4-triazol-3-amine]
fold induction at 1 µM [3]: 1 to 10 | fold induction at 10 µM [3]: 1 to 10

F[C@H]1CCN(c2cc(Nc3ncn(-c4ccccc4)n3)cc(C3CC3)n2)C1 [Compound 460, 2-cyclopropyl-6-[(3S)-3-fluoropyrrolidin-1-yl]-N-(1-phenyl-1,2,4-triazol-3-yl)pyridin-4-amine]
fold induction at 1 µM [3]: 100 to 1000 | fold induction at 10 µM [3]: 10 to 100

Cc1cc(Nc2ncn(-c3ccc(F)c(F)c3)n2)cc(NC2CCN(C3COC3)CC2)c1 [Compound 278, N3-[1-(3,4-difluorophenyl)-1,2,4-triazol-3-yl]-5-methyl-N1-[1-(oxetan-3-yl)-4-piperidyl]benzene-1,3-diamine]
fold induction at 1 µM [1]: 100 to 1000 | fold induction at 10 µM [2]: 1 to 10

Fc1cc(F)cc(-n2cnc(Nc3cc(C(F)(F)F)cc(N4CCNCC4)n3)n2)c1 [Compound 556, N-[1-(3,5-difluorophenyl)-1,2,4-triazol-3-yl]-6-piperazin-1-yl-4-(trifluoromethyl)pyridin-2-amine]
fold induction at 1 µM [3]: 1 to 10 | fold induction at 10 µM [3]: 1 to 10
